What was measured:
[1] = test system: Escherichia coli (mouse-adapted strain 4300); assay: animal or person; assay type: in vivo, mice; settings: for Mortality rate (%) / Survival rate (%): tenth day
Protocol: Escherichia coli (mouse-adaptedstrain 4300, Institute collection) was used as an infectious agent. Mice were infected intravenously.
Firstly, there were determined a lethal dose (LD100) of Escherichia coli to be intravenously administered to this line of mice with a certain weight. Fatal cases among mice were registered every day for ten days. […] For this purpose, mice were housed into cages (10 animals per cage) and infected with a lethal dose of Escherichia coli. One hour after each mouse was administered orally levofloxacin in doses of 1, 2, 4, 6, 8, 10, and 12 mg/kg. A group of mice infected with a lethal dose of Escherichia coli without the treatment was considered as a control group. Fatal cases among mice were registered every day for ten days.
The next step of the experiment was to study an effect of combined administration of glutaryl histamine and levofloxacin on a model of E. coli sepsis in mice.
(§1) In the experiment, mice were housed in following groups (10 animals per cage):
Glutaryl histamine was administered orally in the corresponding doses to mice of groups 3, 4, 5, 6, 7, and 8 for 5 days. Five day after, all groups of mice were intravenously administered 0.2 ml of Escherichia coli in the lethal dose. […] After infection and administration of levofloxacin, glutaryl histamine was administered to mice of groups 3-8 for additional 5 days. During the experiment, the animals were observed every day, and fatal cases were registered (see Table 14).

[2] = test system: Staphylococcus aureus (mouse-adapted strain 10); assay: animal or person; assay type: in vivo, mice; settings: for Mortality rate (%) / Survival rate (%): tenth day
Protocol: The tested medicament was glutaryl histamine in doses of 15, 30 and 45 mg/kg. Solutions of the tested medicament for oral administration were prepared ex tempore. Levofloxacin (in oral administration) was used as a therapeutic preparation since this substance was the most experimentally studied antibiotic approved in clinical practice many years ago.
Staphylococcus aureus (mouse-adaptedstrain 10) was used as an infectious agent. Mice were infected intravenously.
Firstly, there was determined a lethal dose (LD100) of staphylococcus to be intravenously administered to this line of mice having a certain weight. Fatal cases among mice were registered every day for ten days. The lethal dose was 3×10^8 CFU/mouse. […] For this purpose, mice were housed into cages (10 animals per cage) and infected with a lethal dose of staphylococcus. One hour after each mouse was administered orally levofloxacin in doses of 1, 2, 4, 6, 8, 10, and 12 mg/kg. A group of mice infected with a lethal dose of staphylococcus without the treatment was considered as a control group. Fatal cases among mice were registered every day for ten days.
The next step of the experiment was to study an effect of combined administration of glutaryl histamine and levofloxacin on a model of staphylococcal sepsis in mice.
as §1
Glutaryl histamine was administered orally in the corresponding doses to the mice of groups 3, 4, 5, 6, 7, and 8 for 5 days. Five day after, all groups of mice were intravenously administered with 0.2 ml of Staphylococcus aureus in the lethal dose. […] After infection and administration of levofloxacin, glutaryl histamine was administered to mice of groups 3-8 for additional 5 days. During the experiment, the animals were observed every day, and fatal cases were registered (see Table 13).

[3] = test system: acute bronchitis induced by endotracheal administration of lipopolysaccharide; assay: acute bronchitis (bronchiolitis/pneumonia) model, endotracheal LPS; assay type: in vivo, Wistar rats
Text: The therapeutic effectiveness of glutaryl histamine was studied on an experimental model of acute bronchitis. The therapeutic effectiveness of glutaryl histamine was studied on an experimental model of acute bronchitis induced by endotracheal administration of lipopolysaccharide to laboratory Wistar rats through a probe. […] After administration of LPS, from 5 to 7 motions by the syringe plunger was made for better distribution of LPS in the pulmonary tract. After this manipulation, the animals were monitored for 2 hours to reveal complications after the administration.
Dexamethasone in a dose of 5 mg/kg was used a reference medicament.
Histology and morphometry. Respiratory and air pathways were studied on samples taken from the middle third (hilum of the lung) and apexes of the left lung. […] Material for the analysis of the lung histological structure in all animals was taken from the hilum and apex of the lung to study respiratory and air pathways.
The time history of changes in lungs after administration of LPS are shown in FIGS. 1, 2 and 3, wherein the changes are expressed by semi-quantitative scores (intensity of interstitial edema expressed by scores) or by a percentage ratio of the injured part of the lung.

[4] = day 1, glutaryl histamine 15 mg/kg
[5] = day 1, glutaryl histamine 30 mg/kg
[6] = day 1, glutaryl histamine 45 mg/kg
[7] = day 2, glutaryl histamine 15 mg/kg
[8] = day 2, glutaryl histamine 30 mg/kg
[9] = day 2, glutaryl histamine 45 mg/kg
[10] = day 3, glutaryl histamine 15 mg/kg
[11] = day 3, glutaryl histamine 30 mg/kg
[12] = day 3, glutaryl histamine 45 mg/kg
[13] = day 4, glutaryl histamine 15 mg/kg
[14] = day 4, glutaryl histamine 30 mg/kg
[15] = day 4, glutaryl histamine 45 mg/kg
[16] = day 5, glutaryl histamine 15 mg/kg
[17] = day 5, glutaryl histamine 30 mg/kg
[18] = day 5, glutaryl histamine 45 mg/kg
[19] = day 6, glutaryl histamine 15 mg/kg
[20] = day 6, glutaryl histamine 30 mg/kg
[21] = day 6, glutaryl histamine 45 mg/kg
[22] = day 7, glutaryl histamine 15 mg/kg
[23] = day 7, glutaryl histamine 30 mg/kg
[24] = day 7, glutaryl histamine 45 mg/kg
[25] = day 8, glutaryl histamine 15 mg/kg
[26] = day 8, glutaryl histamine 30 mg/kg
[27] = day 8, glutaryl histamine 45 mg/kg
[28] = day 9, glutaryl histamine 15 mg/kg
[29] = day 9, glutaryl histamine 30 mg/kg
[30] = day 9, glutaryl histamine 45 mg/kg
[31] = day 10, glutaryl histamine 15 mg/kg
[32] = day 10, glutaryl histamine 30 mg/kg
[33] = day 10, glutaryl histamine 45 mg/kg

O=C(O)CCCC(=O)NCCc1c[nH]cn1 [glutaryl histamine]
died/survived animals [1, 4]: 0/10
died/survived animals [1, 5]: 0/10
died/survived animals [1, 6]: 0/10
died/survived animals [1, 7]: 0/10
died/survived animals [1, 8]: 0/10
died/survived animals [1, 9]: 1/9
died/survived animals [1, 10]: 0/10
died/survived animals [1, 11]: 0/10
died/survived animals [1, 12]: 1/9
died/survived animals [1, 13]: 1/9
died/survived animals [1, 14]: 1/9
died/survived animals [1, 15]: 3/7
died/survived animals [1, 16]: 2/8
died/survived animals [1, 17]: 3/7
died/survived animals [1, 18]: 5/5
died/survived animals [1, 19]: 5/5
died/survived animals [1, 20]: 6/4
died/survived animals [1, 21]: 7/3
died/survived animals [1, 22]: 6/4
died/survived animals [1, 23]: 7/3
died/survived animals [1, 24]: 8/2
died/survived animals [1, 25]: 8/2
died/survived animals [1, 26]: 7/3
died/survived animals [1, 27]: 9/1
died/survived animals [1, 28]: 8/2
died/survived animals [1, 29]: 8/2
died/survived animals [1, 30]: 9/1
died/survived animals [1, 31]: 8/2
died/survived animals [1, 32]: 8/2
died/survived animals [1, 33]: 9/1
Mortality rate (%) ([1]; glutaryl histamine 15 mg/kg): 80%
Survival rate (%) ([1]; glutaryl histamine 15 mg/kg): 20%
Mortality rate (%) ([1]; glutaryl histamine 30 mg/kg): 80%
Survival rate (%) ([1]; glutaryl histamine 30 mg/kg): 20%
Mortality rate (%) ([1]; glutaryl histamine 45 mg/kg): 90%
Survival rate (%) ([1]; glutaryl histamine 45 mg/kg): 10%
died/survived animals [2, 4]: 0/10
died/survived animals [2, 5]: 0/10
died/survived animals [2, 6]: 0/10
died/survived animals [2, 7]: 0/10
died/survived animals [2, 8]: 0/10
died/survived animals [2, 9]: 0/10
died/survived animals [2, 10]: 0/10
died/survived animals [2, 11]: 0/10
died/survived animals [2, 12]: 1/9
died/survived animals [2, 13]: 1/9
died/survived animals [2, 14]: 1/9
died/survived animals [2, 15]: 2/8
died/survived animals [2, 16]: 2/8
died/survived animals [2, 17]: 3/7
died/survived animals [2, 18]: 4/6
died/survived animals [2, 19]: 3/7
died/survived animals [2, 20]: 4/6
died/survived animals [2, 21]: 5/5
died/survived animals [2, 22]: 4/6
died/survived animals [2, 23]: 6/4
died/survived animals [2, 24]: 7/3
died/survived animals [2, 25]: 6/4
died/survived animals [2, 26]: 7/3
died/survived animals [2, 27]: 8/2
died/survived animals [2, 28]: 7/3
died/survived animals [2, 29]: 7/3
died/survived animals [2, 30]: 8/2
died/survived animals [2, 31]: 8/2
died/survived animals [2, 32]: 7/3
died/survived animals [2, 33]: 8/2
Mortality rate (%) ([2]; glutaryl histamine 15 mg/kg): 80%
Survival rate (%) ([2]; glutaryl histamine 15 mg/kg): 20%
Mortality rate (%) ([2]; glutaryl histamine 30 mg/kg): 70%
Survival rate (%) ([2]; glutaryl histamine 30 mg/kg): 30%
Mortality rate (%) ([2]; glutaryl histamine 45 mg/kg): 80%
Survival rate (%) ([2]; glutaryl histamine 45 mg/kg): 20%
Peribronchial infiltration and interstitial edema (lung sections) ([3]; 27 mg/kg, 24 hours after administration of LPS): Reduction
Peri- and intrabronchial infiltration and interstitial edema (lung sections) ([3]; 27 mg/kg, 72 hours after administration of LPS): Reduction
interstitial edema ([3]; 27 mg/kg, first and third days, compared with the control group): reduction
alveolar infiltration ([3]; 27 mg/kg, starting from the second day up to the third day): significant reduction
Hemorrhagic symptoms in lungs ([3]; all time points, each tested dose): significantly weaker compared to the control group and the group of dexamethasone
